Test results as given in the supplement of paper PMC4862054.

What was measured:
Conditions in all cases: incubation time: 72 h
BT-474 [1] = test: normalised response (% of control), CellTox Green; higher = less cell death (100 = DMSO, 0 = benzethonium chloride kill control)
Summary of the method: (§1)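 Compound was dispensed into 384-well plates at 5 concentrations in 10-fold steps spanning a 10,000-fold range specific to that compound. Breast cancer cell lines were added as 20 µl suspension and left for 72 h before CellTox Green fluorescence (485/520 nm) and then CellTiter-Glo luminescence, read after 10 min at room temperature. Each reported value is the normalised signal at one concentration, with 0.1 % DMSO set at 100 and a positive kill control at 0 on each plate.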

BT-549 [2] = test: as above
Summary of the method: as §1

CAL-120 [3] = test: as above
Summary of the method: as §1

CAL-148 [4] = test: as above
Summary of the method: as §1

CAL-51 [5] = test: as above
Summary of the method: as §1

CAL-85-1 [6] = test: as above
Summary of the method: as §1

DU-4475 [7] = test: as above
Summary of the method: as §1

HCC1143 [8] = test: as above
Summary of the method: as §1

HCC1599 [9] = test: as above
Summary of the method: as §1

HCC1937 [10] = test: as above
Summary of the method: as §1

HDQ-P1 [11] = test: as above
Summary of the method: as §1

Hs578T [12] = test: as above
Summary of the method: as §1

MCF-10A [13] = test: as above
Summary of the method: as §1

MDA-MB-231 [14] = test: as above
Summary of the method: as §1

MDA-MB-436 [15] = test: as above
Summary of the method: as §1

MDA-MB-453 [16] = test: as above
Summary of the method: as §1

MDA-MB-468 [17] = test: as above
Summary of the method: as §1

MFM-223 [18] = test: as above
Summary of the method: as §1

BT-474 [19] = test: normalised response (% of control), CellTiter-Glo; higher = more viable cells (100 = DMSO, 0 = benzethonium chloride kill control)
Protocol: (§2)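 DSRT, 72 h incubation, CellTox Green / CellTiter-Glo readout. Signal is normalised to DMSO and benzethonium chloride controls. Value is the normalised response at dose 3.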

BT-549 [20] = test: as above
Protocol: as §2

CAL-120 [21] = test: as above
Protocol: as §2

CAL-148 [22] = test: as above
Protocol: as §2

CAL-51 [23] = test: as above
Protocol: as §2

CAL-85-1 [24] = test: as above
Protocol: as §2

DU-4475 [25] = test: as above
Protocol: as §2

HCC1143 [26] = test: as above
Protocol: as §2

HCC1599 [27] = test: as above
Protocol: as §2

HCC1937 [28] = test: as above
Protocol: as §2

HDQ-P1 [29] = test: as above
Protocol: as §2

Hs578T [30] = test: as above
Protocol: as §2

MCF-10A [31] = test: as above
Protocol: as §2

MDA-MB-231 [32] = test: as above
Protocol: as §2

MDA-MB-436 [33] = test: as above
Protocol: as §2

MDA-MB-453 [34] = test: as above
Protocol: as §2

MDA-MB-468 [35] = test: as above
Protocol: as §2

MFM-223 [36] = test: as above
Protocol: as §2

SK-BR-3 = test: as above
Protocol: as §2

SMILES	normalised response (BT-474 [1]) [%]	normalised response (BT-549 [2]) [%]	normalised response (CAL-120 [3]) [%]	normalised response (CAL-148 [4]) [%]	normalised response (CAL-51 [5]) [%]	normalised response (CAL-85-1 [6]) [%]	normalised response (DU-4475 [7]) [%]	normalised response (HCC1143 [8]) [%]	normalised response (HCC1599 [9]) [%]	normalised response (HCC1937 [10]) [%]	normalised response (HDQ-P1 [11]) [%]	normalised response (Hs578T [12]) [%]	normalised response (MCF-10A [13]) [%]	normalised response (MDA-MB-231 [14]) [%]	normalised response (MDA-MB-436 [15]) [%]	normalised response (MDA-MB-453 [16]) [%]	normalised response (MDA-MB-468 [17]) [%]	normalised response (MFM-223 [18]) [%]	normalised response (BT-474 [19]) [%]	normalised response (BT-549 [20]) [%]	normalised response (CAL-120 [21]) [%]	normalised response (CAL-148 [22]) [%]	normalised response (CAL-51 [23]) [%]	normalised response (CAL-85-1 [24]) [%]	normalised response (DU-4475 [25]) [%]	normalised response (HCC1143 [26]) [%]	normalised response (HCC1599 [27]) [%]	normalised response (HCC1937 [28]) [%]	normalised response (HDQ-P1 [29]) [%]	normalised response (Hs578T [30]) [%]	normalised response (MCF-10A [31]) [%]	normalised response (MDA-MB-231 [32]) [%]	normalised response (MDA-MB-436 [33]) [%]	normalised response (MDA-MB-453 [34]) [%]	normalised response (MDA-MB-468 [35]) [%]	normalised response (MFM-223 [36]) [%]	normalised response (SK-BR-3) [%]
O=C(O)c1ccc(-c2c[nH]c3ncc(-c4ccccc4)cc23)cc1C1CCCC1 (100 nM)	99.5	83.6	95	101	84.6	108	95.1	83.7	98.6	107	99	89.5	97.3	89.3	95.5	95.8	108	101	93.8	101	97.9	88	64.1	101	98.2	102	89.5	97.1	96.7	103	93.1	97.3	89.5	97.6	90.6	96.2	97.2
CCC1(c2ccc(N)cc2)CCC(=O)NC1=O (stereo not given) [Aminoglutethimide] (100 nM)	101	98	98.6	–	113	106	98.3	96.9	104	102	88.9	103	99.1	98	109	103	119	92.2	99.1	108	108	105	117	107	100	95.3	90.5	94.7	98.5	98.3	94.1	104	98.3	103	100	102	99.3
Cn1c(CCCC(=O)O)nc2cc(N(CCCl)CCCl)ccc21 [Bendamustine] (100 nM)	102	101	97.4	107	111	89.6	103	110	109	88.6	88.7	105	73.5	102	91.8	105	141	105	104	106	103	117	107	97.3	101	111	99.1	105	102	103	108	104	97.6	125	106	106	108
C=C(c1ccc(C(=O)O)cc1)c1cc2c(cc1C)C(C)(C)CCC2(C)C [Bexarotene] (100 nM)	97	92.4	99.7	95.2	96.9	95.8	98.8	97.9	105	105	108	98.7	104	–	94.1	96.1	108	81.8	109	105	104	101	80.1	105	104	104	90.8	100	104	95.9	91.8	101	98	117	104	108	88.6
C[C@@H](Oc1cc(-c2cnn(C3CCNCC3)c2)cnc1N)c1c(Cl)ccc(F)c1Cl [Crizotinib] (10 nM)	100	98.6	107	102	84.9	89.3	103	89.3	109	90.5	96.1	105	80.3	88.4	65.4	105	230	105	102	96.7	100	100	57.6	93.5	103	102	97.4	98.2	93.6	99.9	101	104	99	107	92.7	99.3	97.3
C#Cc1cccc(Nc2ncnc3cc(OCCOC)c(OCCOC)cc23)c1 [Erlotinib] (100 nM)	101	93	95.6	103	111	86.2	102	114	104	107	108	75.5	85.9	–	98.9	106	118	103	98.3	105	98.1	115	105	100	105	102	102	99	74	100	65	118	102	109	90.8	103	112
C[C@]12CC[C@@H]3c4ccc(O)cc4C[C@@H](CCCCCCCCC[S+]([O-])CCCC(F)(F)C(F)(F)F)[C@H]3[C@@H]1CC[C@@H]2O (stereo not given in full) [Fulvestrant] (10 nM)	99.8	104	101	104	109	102	103	107	105	121	97.2	100	104	115	107	79.4	86.1	–	104	106	103	105	111	97.9	101	105	108	92.8	96.1	102	109	106	103	103	108	104	105
CCC(C)(C)C(=O)O[C@H]1C[C@@H](C)C=C2C=C[C@H](C)[C@H](CC[C@@H]3C[C@@H](O)CC(=O)O3)[C@H]21 [Simvastatin] (100 nM)	97.3	59.3	–	99.7	113	–	105	91	95.1	68.8	78.8	75.5	107	115	–	77.8	94.2	102	97.5	94.5	100	107	104	98.9	98.4	105	89.2	99	102	102	111	98.6	99.7	95.5	93.7	105	105
O=C(CCCCCCC(=O)Nc1ccc([C@H]2O[C@@H](CSc3nc(-c4ccccc4)c(-c4ccccc4)o3)C[C@@H](c3ccc(CO)cc3)O2)cc1)NO [Tubacin] (100 nM)	102	102	105	98.1	101	99.6	100	99	102	83.3	87.9	98.1	104	110	–	99.4	82.4	103	94.8	96.7	112	106	89.2	97.2	102	96	85.2	92.8	88.2	94.6	106	97	96.8	96.1	95.3	97	97.1
